Experimental data taken from ChEMBL document CHEMBL4842328, “A cyclic peptide inhibitor of the SARS-CoV-2 main protease” (Eur J Med Chem, 2021).
The source made the active and inactive calls. The calls are words filed in the database; no cut-off is given here. Numbered stars: 1 amine (or outer) side, 2 acyl side, 3 side chain; on linkers, the order of the positions; unused ones are H or OH. Square brackets hold non-standard residues; d marks the D form. Peptide text beside a SMILES is read from it. * marks the point of attachment. X2 = O=C(Cc1ccc(CCN[*:1])cc1)[*:2]; X1 = NC(=O)Cc1ccc(CCN*)cc1

Columns and labels:
[1] = test system: Severe acute respiratory syndrome coronavirus 2; test: Inhibition of SARS-CoV-2 main protease using K(Dabcy1)-TSAVLQSGFRKM-E-Edans-NH2 as substrate at <=750 uM preincubated with enzyme for 30 mins followed by substrate addition by FRET assay; settings: dose microM <=750, time 30.0 min
[2] = Inhibition of SARS-CoV-2 main protease using K(Dabcy1)-TSAVLQSGFRKM-E-Edans-NH2 as substrate preincubated with enzyme for 30 mins followed by substrate addition by FRET assay; design: species or system Severe acute respiratory syndrome coronavirus 2
[3] = Stability of the compound assessed as SARS-CoV-2 main protease-mediated compound cleavage at 187.5 uM measured after 4 hrs by LC/MS analysis; type: ADME; settings: severe acute respiratory syndrome coronavirus 2, 4 h
HEK293 = test: Cytotoxicity against human HEK293 assessed as reduction in cell viability upto 256 uM after 72 hrs by LDH assay; type: cell-based; settings: hek293, 72 h

Row | Structure (SMILES) | inhibition [1] | IC50 [2] | Stabilty [3] | Activity (HEK293)
1 | CC(=O)N[C@@H](Cc1ccccc1)C(=O)N[C@@H](CCC(N)=O)C(=O)N[C@@H](CO)C(=O)N[C@@H](CCCCN)C(=O)NCCc1ccc(CC(N)=O)cc1 (Ac-FQSK-X1) | inactive | > 1500 µM | – | –
2 | NCCCC[C@@H]1NC(=O)[C@H](CO)NC(=O)[C@H](CCC(N)=O)NC(=O)[C@H](Cc2ccccc2)NC(=O)Cc2ccc(cc2)CCNC1=O.O=C(O)C(F)(F)F (cyclo(FQSK[X2])) | – | – | Stable | Non-Toxic
3 | NCCCC[C@@H]1NC(=O)[C@H](CO)NC(=O)[C@H](CCC(N)=O)NC(=O)[C@@H](Cc2ccccc2)NC(=O)Cc2ccc(cc2)CCNC1=O (cyclo([dF]QSK[X2])) | – | > 1500 µM | – | –
